Test results: patent US8937078B2, “Quinazolinones as prolyl hydroxylase inhibitors” (Janssen Pharmaceutica NV, priority 2009, dated 2015)

How the values were obtained:
human PHD2 (PHD2181-417) = biological target: T1, human PHD2 (PHD2181-417) (Homo sapiens, UniProt Q9GZT9); assay: PHD enzymatic assay ([14C]-succinic acid production); assay type: biochemical; conditions: PHD2181-417, HIF-1α peptide 10 μM, average of results; read-out: Enzyme pIC50 (converted)
T1 construct: Smt (SUMO) tag (cleaved yes); made in house; host or cells: E. coli BL21 (pBAD vector)
In short: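 Activity measured as [14C]-succinic acid formed from [5-14C]-2-oxoglutarate over 10 minutes, with peptide substrate at 10 μM, in Tris-HCl pH 7.5 buffer containing catalase, DTT and ascorbate. Unreacted oxoglutarate removed by DNP derivatisation; supernatant beta-counted.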

Hep-3B cells = assay: Cellular assay: erythropoietin secretion in Hep-3B cells; assay type: cell-based, human; conditions: Homo sapiens, Hep3B, 100 μM compound, 24 hours, percent of EPO secretion relative to assay control compound 7-[(4-Chloro-phenyl)-(5-methyl-isoxazol-3-ylamino)-methyl]-quinolin-8-ol, read-out: Cellular % EPO Stimulation
In short: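 Hep-3B cells in DMEM with 10% FBS, treated 24 h after plating with compounds at 100 μM final for a further 24 h. Secreted EPO in supernatant measured by MSD electrochemiluminescence sandwich immunoassay with anti-EPO detection antibody.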

T1 sequence (Q9GZT9 181-417): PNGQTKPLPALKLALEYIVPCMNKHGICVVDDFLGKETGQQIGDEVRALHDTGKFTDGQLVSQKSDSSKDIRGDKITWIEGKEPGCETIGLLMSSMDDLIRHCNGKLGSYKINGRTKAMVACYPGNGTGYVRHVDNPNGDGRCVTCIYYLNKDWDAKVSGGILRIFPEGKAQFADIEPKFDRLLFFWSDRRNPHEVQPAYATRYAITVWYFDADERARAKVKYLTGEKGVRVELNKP

IC50 (human PHD2 (PHD2181-417)) | SMILES | Emax at 100 µM (Hep-3B cells)
20 nM | Cc1ccc(Oc2cc3c(=O)[nH]c(-n4cc(C(=O)O)cn4)nc3cc2C)cc1C [Example 92, 1-[6-(3,4-dimethyl-phenoxy)-7-methyl-4-oxo-3,4-dihydro-quinazolin-2-yl]-1H-pyrazole-4-carboxylic acid] | 137%
20 nM | Cc1cc2nc(-n3cc(C(=O)O)cn3)[nH]c(=O)c2cc1Oc1cccc(C(F)(F)F)c1 [Example 93, 1-[7-methyl-4-oxo-6-(3-trifluoromethyl-phenoxy)-3,4-dihydro-quinazolin-2-yl]-1H-pyrazole-4-carboxylic acid] | 153%
20 nM | O=C(O)c1cnn(-c2nc3cc(F)c(Oc4cccc(C(F)(F)F)c4)cc3c(=O)[nH]2)c1 [Example 95, 1-[7-fluoro-4-oxo-6-(3-trifluoromethyl-phenoxy)-3,4-dihydro-quinazolin-2-yl]-1H-pyrazole-4-carboxylic acid] | 61%
25.1 nM | O=C(O)c1cnn(-c2nc3ccc(Oc4cccc(C(F)(F)F)c4F)cc3c(=O)[nH]2)c1 [Example 96, 1-[6-(2-fluoro-3-trifluoromethyl-phenoxy)-4-oxo-3,4-dihydro-quinazolin-2-yl]-1H-pyrazole-4-carboxylic acid] | 51%
20 nM | Cc1cc(C)cc(Oc2ccc3nc(-n4cc(C(=O)O)cn4)[nH]c(=O)c3c2)c1 [Example 98, 1-[6-(3,5-dimethyl-phenoxy)-4-oxo-3,4-dihydro-quinazolin-2-yl]-1H-pyrazole-4-carboxylic acid] | 85%
25.1 nM | O=C(O)c1cnn(-c2nc3cc(F)c(Oc4c(Cl)cccc4Cl)c(F)c3c(=O)[nH]2)c1 [Example 101, 1-[6-(2,6-dichloro-phenoxy)-5,7-difluoro-4-oxo-3,4-dihydro-quinazolin-2-yl]-1H-pyrazole-4-carboxylic acid] | 24%
63.1 nM | CN1CCN(c2ccc3nc(-n4cc(C(=O)O)cn4)[nH]c(=O)c3c2)CC1 [Example 103, 1-[6-(4-methyl-piperazin-1-yl)-4-oxo-3,4-dihydro-quinazolin-2-yl]-1H-pyrazole-4-carboxylic acid] | 30%
31.6 nM | CC(C)Oc1ccc2nc(-n3cc(C(=O)O)cn3)[nH]c(=O)c2c1 [Example 104, 1-(6-isopropoxy-4-oxo-3,4-dihydro-quinazolin-2-yl)-1H-pyrazole-4-carboxylic acid] | 75%
31.6 nM | O=C(O)c1cnn(-c2nc3ccc(-c4ccccc4)cc3c(=O)[nH]2)c1 [Example 106, 1-(4-oxo-6-phenyl-3,4-dihydro-quinazolin-2-yl)-1H-pyrazole-4-carboxylic acid] | 129%
25.1 nM | O=C(O)c1cnn(-c2nc3ccc(-c4ccc5cc[nH]c5c4)cc3c(=O)[nH]2)c1 [Example 108, 1-[6-(1H-Indol-6-yl)-4-oxo-3,4-dihydro-quinazolin-2-yl]-1H-pyrazole-4-carboxylic acid] | 85%
126 nM | O=C(O)c1cnn(-c2nc3c(-c4ccccc4)cccc3c(=O)[nH]2)c1 [Example 111, 1-(4-Oxo-8-phenyl-3,4-dihydro-quinazolin-2-yl)-1H-pyrazole-4-carboxylic acid] | 24%
158 nM | O=C(O)c1cnn(-c2nc3c(Oc4ccccc4)cccc3c(=O)[nH]2)c1 [Example 112, 1-(4-Oxo-8-phenoxy-3,4-dihydro-quinazolin-2-yl)-1H-pyrazole-4-carboxylic acid] | 18%
200 nM | O=C(O)c1cnn(-c2nc3c(F)ccc(F)c3c(=O)[nH]2)c1 [Example 116, 1-(5,8-Difluoro-4-oxo-3,4-dihydro-quinazolin-2-yl)-1H-pyrazole-4-carboxylic acid] | 17%
794 nM | O=C(O)c1cnn(-c2nc3c(OC(F)(F)F)cccc3c(=O)[nH]2)c1 [Example 117, 1-(4-Oxo-8-trifluoromethoxy-3,4-dihydro-quinazolin-2-yl)-1H-pyrazole-4-carboxylic acid] | 12%
15.8 nM | CC(C)c1ccc2nc(-n3cc(C(=O)O)cn3)[nH]c(=O)c2c1 [Example 119, 1-(6-Isopropyl-4-oxo-3,4-dihydro-quinazolin-2-yl)-1H-pyrazole-4-carboxylic acid] | 115%
20 nM | CCC(C)c1ccc2nc(-n3cc(C(=O)O)cn3)[nH]c(=O)c2c1 (stereo not drawn) [Example 120, 1-(6-sec-Butyl-4-oxo-3,4-dihydro-quinazolin-2-yl)-1H-pyrazole-4-carboxylic acid] | 68%
10 nM | CCOc1ccc2nc(-n3cc(C(=O)O)cn3)[nH]c(=O)c2c1 [Example 121, 1-(6-Ethoxy-4-oxo-3,4-dihydro-quinazolin-2-yl)-1H-pyrazole-4-carboxylic acid] | 30%
39.8 nM | O=C(O)c1cnn(-c2nc3ccc(N4CCCCC4)cc3c(=O)[nH]2)c1 [Example 124, 1-(4-Oxo-6-piperidin-1-yl-3,4-dihydro-quinazolin-2-yl)-1H-pyrazole-4-carboxylic acid] | 71%

More lines, now with the values behind:

SMILES | IC50 (human PHD2 (PHD2181-417)) | Emax at 100 µM (Hep-3B cells)
Cc1cc(C)cc(Oc2cc3c(=O)[nH]c(-n4cc(C(=O)O)cn4)nc3cc2F)c1 [Example 94, 1-[6-(3,5-dimethyl-phenoxy)-7-fluoro-4-oxo-3,4-dihydro-quinazolin-2-yl]-1 H-pyrazole-4-carboxylic acid] | 20 nM | 90%
O=C(O)c1cnn(-c2nc3ccc(Oc4cc(F)cc(C(F)(F)F)c4)cc3c(=O)[nH]2)c1 [Example 97, 1-[6-(3-fluoro-5-trifluoromethyl-phenoxy)-4-oxo-3,4-dihydro-quinazolin-2-yl]-1H-pyrazole-4-carboxylic acid] | 20 nM | 37%
O=C(O)c1cnn(-c2nc3ccc(Oc4cccc(-c5ccccc5)c4)cc3c(=O)[nH]2)c1 [Example 99, 1-[6-(biphenyl-3-yloxy)-4-oxo-3,4-dihydro-quinazolin-2-yl]-1H-pyrazole-4-carboxylic acid] | 25.1 nM | 81%
O=C(O)c1cnn(-c2nc3ccc(Oc4cccc(C(F)(F)F)c4)cc3c(=O)[nH]2)c1 [Example 100, 1-[4-oxo-6-(3-trifluoromethyl-phenoxy)-3,4-dihydro-quinazolin-2-yl]-1H-pyrazole-4-carboxylic acid] | 25.1 nM | 55%
O=C(O)c1cnn(-c2nc3ccc(OC4CCCCC4)cc3c(=O)[nH]2)c1 [Example 102, 1-(6-cyclohexyloxy-4-oxo-3,4-dihydro-quinazolin-2-yl)-1H-pyrazole-4-carboxylic acid] | 20 nM | 59%
O=C(O)c1cnn(-c2nc3ccc(Cc4ccccc4)cc3c(=O)[nH]2)c1 [Example 105, 1-(6-benzyl-4-oxo-3,4-dihydro-quinazolin-2-yl)-1H-pyrazole-4-carboxylic acid] | 31.6 nM | 129%
O=C(O)c1cnn(-c2nc3ccc(N4CCOCC4)cc3c(=O)[nH]2)c1 [Example 107, 1-(6-morpholin-4-yl-4-oxo-3,4-dihydro-quinazolin-2-yl)-1H-pyrazole-4-carboxylic acid] | 39.8 nM | 45%
O=C(O)c1cnn(-c2nc3ccc(C4CC4)cc3c(=O)[nH]2)c1 [Example 109, 1-(6-Cyclopropyl-4-oxo-3,4-dihydro-quinazolin-2-yl)-1H-pyrazole-4-carboxylic acid] | 25.1 nM | 100%
O=C(O)c1cnn(-c2nc3cc(F)c(C4CCCCC4)cc3c(=O)[nH]2)c1 [Example 110, 1-(6-Cyclohexyl-7-fluoro-4-oxo-3,4-dihydro-quinazolin-2-yl)-1H-pyrazole-4-carboxylic acid] | 158 nM | 47%
O=C(O)c1cnn(-c2nc3c(Sc4ccccc4)cccc3c(=O)[nH]2)c1 [Example 113, 1-(4-Oxo-8-phenylsulfanyl-3,4-dihydro-quinazolin-2-yl)-1H-pyrazole-4-carboxylic acid] | 200 nM | 17%
CC(C)c1cccc2c(=O)[nH]c(-n3cc(C(=O)O)cn3)nc12 [Example 114, 1-(8-Isopropyl-4-oxo-3,4-dihydro-quinazolin-2-yl)-1H-pyrazole-4-carboxylic acid] | 251 nM | 16%
CC(C)(C)c1cccc2c(=O)[nH]c(-n3cc(C(=O)O)cn3)nc12 [Example 115, 1-(8-tert-Butyl-4-oxo-3,4-dihydro-quinazolin-2-yl)-1H-pyrazole-4-carboxylic acid] | 158 nM | 27%
O=C(O)c1cnn(-c2nc3c(F)cccc3c(=O)[nH]2)c1 [Example 118, 1-(8-Fluoro-4-oxo-3,4-dihydro-quinazolin-2-yl)-1H-pyrazole-4-carboxylic acid] | 79.4 nM | 16%
COc1ccc2nc(-n3cc(C(=O)O)cn3)[nH]c(=O)c2c1 [Example 122, 1-(6-Methoxy-4-oxo-3,4-dihydro-quinazolin-2-yl)-1H-pyrazole-4-carboxylic acid] | 25.1 nM | 16%
O=C(O)c1cnn(-c2nc3ccc(N4CCCC4)cc3c(=O)[nH]2)c1 [Example 123, 1-(4-Oxo-6-pyrrolidin-1-yl-3,4-dihydro-quinazolin-2-yl)-1H-pyrazole-4-carboxylic acid] | 39.8 nM | 17%
